From patent US20240254087A1, “SELECTIVE, PARTIAL, AND ARRESTIN-BIASED 5-HT2A AGONISTS WITH UTILITY IN VARIOUS DISORDERS” (Saint Joseph's University, priority 2021, published 2024) come the findings set out here.

Entries after “also recorded” stand apart in the source; their conditions may differ.

T1 sequence (P28223 whole entry): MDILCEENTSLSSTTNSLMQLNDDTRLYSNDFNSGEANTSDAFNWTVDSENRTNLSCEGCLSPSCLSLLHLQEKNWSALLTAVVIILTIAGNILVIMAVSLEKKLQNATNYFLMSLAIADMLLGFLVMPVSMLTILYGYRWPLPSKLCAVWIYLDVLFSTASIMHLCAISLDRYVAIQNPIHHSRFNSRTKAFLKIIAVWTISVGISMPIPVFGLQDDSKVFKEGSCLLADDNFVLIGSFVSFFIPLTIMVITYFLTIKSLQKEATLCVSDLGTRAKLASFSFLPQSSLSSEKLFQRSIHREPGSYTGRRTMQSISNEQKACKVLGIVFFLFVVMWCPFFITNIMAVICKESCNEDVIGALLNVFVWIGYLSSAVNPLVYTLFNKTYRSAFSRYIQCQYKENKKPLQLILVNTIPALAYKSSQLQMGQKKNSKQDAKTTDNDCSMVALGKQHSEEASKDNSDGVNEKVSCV

The subject of one experiment is male C57BL/6J mice. The experiment in a line: Blockade of agonist-induced HTR by pretreatment. It is filed as in vivo, mouse. The note with it: pretreatment of mice with test compound. On the procedure: (§1) Vehicle or the NMDA receptor antagonist PCP (5 mg/kg) was injected IP 10 min after SC administration of vehicle or 25N-NB1-Nap (16), and then the mice were placed in the test chambers 10 min later for a 60-min assessment of locomotor activity. (C). […] Mice were treated with vehicle or M100907 (0.03 mg/kg SC) 10 min prior to vehicle or PCP (5 mg/kg IP): animals were placed in the test chambers 10 min after treatment with PCP.
Male C57BL/6J mice (6-8 weeks old) from Jackson Labs (Bar Harbor, ME, USA) were used for the behavioral experiments. The mice were housed on a reversed light-dark cycle (lights on at 1900 h, off at 0700 h) in an AAAC-approved vivarium at the University of California San Diego. Mice were housed up to four per cage in a climate-controlled room and with food and water provided ad libitum except during behavioral testing. Testing was performed between 1000 and 1800 h (during the dark phase of the light-dark cycle). The studies were conducted in accordance with National Institutes Health (NIH) guidelines and were approved by the University of California San Diego Institutional Animal Care and Use Committee.
The mice were allowed to recover from the magnet implantation surgeries for at least 1 week prior to behavioral testing. HTR experiments were conducted in a well-lit room, and the mice were allowed to habituate to the room for at least 1 h prior to testing. Head twitches was assessed in a 12-cm diameter glass cylinder surrounded by a magnetometer coil. Coil voltage was low-pass filtered (2 kHz), amplified, and digitized (20-kHz sampling rate) using a Powerlab/8SP with LabChart v 7.3.2 (ADInstruments, Colorado Springs, CO, USA). […] HTR counts were analyzed using one-way ANOVAs. Dunnett's test was used for post hoc comparisons.
`COc1cc([N+](=O)[O-])c(OC)cc1CCNCc1cccc2ccccc12` [25N-N-1-Nap (16), [2-(2,5-dimethoxy-4-nitrophenyl)ethyl][(naphthalen-1-yl)methyl]amine]: the “Blockade of the HTR induced by DOI” value was “blocked the HTR”.

As for `COc1cc([N+](=O)[O-])c(OC)cc1CCNCc1cccc(C)c1O` [25N-NB-2-OH-3-Me (18), 2-({[2-(2,5-dimethoxy-4-nitrophenyl)ethyl]amino}methyl)-6-methylphenol], the “Blockade of the HTR induced by DOI” value is “blocked the HTR; also recorded: can block the HTR”.

`COc1cc([N+](=O)[O-])c(OC)cc1CCNCc1ccccc1-c1ccccc1` [25N-NBPh (17), ({[1,1′-biphenyl]-2-yl}methyl)[2-(2,5-dimethoxy-4-nitrophenyl)ethyl]amine]: the “Blockade of the HTR induced by DOI” value was “blocked the HTR”.

Another experiment concerns the target T1, 5-HT2A (Homo sapiens, UniProt P28223). As to the kind of experiment: NanoLuc internalization assay. It is filed as cell-based. The note with it: 60 min.
For the compound `COc1cc([N+](=O)[O-])c(OC)cc1CCNCc1cccc2ccccc12` [25N-N-1-Nap (16), [2-(2,5-dimethoxy-4-nitrophenyl)ethyl][(naphthalen-1-yl)methyl]amine], the “Internalization of 5-HT2A receptors” value is “potent and strong internalization”.

In the case of `COc1cc([N+](=O)[O-])c(OC)cc1CCNCc1ccccc1OC` [25N-NBOMe (4), [2-(2,5-dimethoxy-4-nitrophenyl)ethyl] [(2-methoxyphenyl)methyl]amine], the “Internalization of 5-HT2A receptors” value is “strong internalization”.

For `COc1cc([N+](=O)[O-])c(OC)cc1CCNCc1ccccc1-c1ccccc1` [25N-NBPh (17), ({[1,1′-biphenyl]-2-yl}methyl)[2-(2,5-dimethoxy-4-nitrophenyl)ethyl]amine], the “Internalization of 5-HT2A receptors” value was “potent and strong internalization”.

In another experiment the target is T2, h5-HT2A (Homo sapiens, UniProt P28223).
T2 construct: expressed in transfected cells
T2 sequence (P28223 whole entry): as above
The experiment in a line: Antagonism of 5-HT induced Ca2+ flux activation. The note with it: FIG. 1D. It is filed as cell-based. On the procedure: as §1, with “(A). DOI, a hallucinogen and 5-HT2A agonist, was administered IP 10 min after SC administration of vehicle or test drug. A and then HTR activity was assessed for 30 minutes. *p<0.001, significant difference vs. vehicle (B). Vehicle” for “Vehicle”, “PCP. Animals were tested for 60 min. *p<0.01 vs. vehicle: ^#p<0.01 vs. PCP alone.” for “PCP.”
Calcium flux was measured using stable-expressing 5-HT2 Flp-In 293 T-Rex Tetracycline inducible system described previously (Investigation of the Structure-Activity Relationships of Psilocy bin Analogues, ACS Pharmacol. Transl. Sci. 2020, Publication Date: Dec. 14, 2020, https://doi.org/10.1021/acsptsci.0c00176). […] After dye load, cells were allowed to equilibrate to room temperature for 15 minutes, and then placed in a FLIPR^TETRA fluorescence imaging plate reader (Molecular Devices). Fluorescence for the FLIPR^TETRA were programmed to read baseline fluorescence for 10 s (1 read/s), and afterward 5 μl of drug per well was added and read for a total of 5-10 min (1 read/s). […]
(A change in cytosolic calcium serves as a functional read-out for many receptors and channels.)
Take `COc1cc([N+](=O)[O-])c(OC)cc1CCNCc1cccc2ccccc12` [25N-N-1-Nap (16), [2-(2,5-dimethoxy-4-nitrophenyl)ethyl][(naphthalen-1-yl)methyl]amine]: the “Antagonism of 5-HT induced h5-HT2A Ca2+ flux activation” value is reported as “Antagonism”.

For the compound `COc1cc([N+](=O)[O-])c(OC)cc1CCNCc1ccccc1-c1ccccc1` [25N-NBPh (17), ({[1,1′-biphenyl]-2-yl}methyl)[2-(2,5-dimethoxy-4-nitrophenyl)ethyl]amine], the “Antagonism of 5-HT induced h5-HT2A Ca2+ flux activation” value was “Antagonism”.

In another experiment the target is T1, 5-HT2A. As to the kind of experiment: [3H]-ketanserin displacement, 5-HT2A membranes. It is filed as binding.
Conditions: not given
The arrangement: ES-313-M400UA (membranes); host or cells: CHO-K1.
Compound `COc1cc([N+](=O)[O-])c(OC)cc1CCNCc1cccc2ccccc12` [25N-N-1-Nap (16), [2-(2,5-dimethoxy-4-nitrophenyl)ethyl][(naphthalen-1-yl)methyl]amine] gave a Ki of 4.27 nM.

Compound `COc1cc([N+](=O)[O-])c(OC)cc1CCNCc1ccccc1OC` [25N-NBOMe (4), [2-(2,5-dimethoxy-4-nitrophenyl)ethyl] [(2-methoxyphenyl)methyl]amine] had a Ki of 1.41 nM. Against the preceding compound, the Ki is about 3-fold lower.

Another experiment addresses T1, 5-HT2A. As to the kind of experiment: cell-based. The arrangement: expressed in transfected cells; host or cells: HEK293T, transient. The note with it: read-out: 5-HT2A Gq Emax (% 5-HT), BRET, mean ± SEM.
For the compound `COc1cc([N+](=O)[O-])c(OC)cc1CCN` [2C-N (1), 2-(2,5-dimethoxy-4-nitrophenyl)ethan-1-amine, reference compound], the Emax turned out to be 87.9 ± 1.4%.

In the case of `COc1cc([N+](=O)[O-])c(OC)cc1CCNCc1cccc2ccccc12` [25N-N-1-Nap (16), [2-(2,5-dimethoxy-4-nitrophenyl)ethyl][(naphthalen-1-yl)methyl]amine], the Emax stood at 23.7 ± 1.4%.

For the compound `COc1cc([N+](=O)[O-])c(OC)cc1CCNCc1ccccc1` [25N-NB (2), Benzyl[2-(2,5-dimethoxy-4-nitrophenyl)ethyl]amine], the maximal effect (Emax) was found to be 79.5 ± 1.5%.

As for `COc1cc([N+](=O)[O-])c(OC)cc1CCNCc1cccc(F)c1OC` [25N-NB-2-MeO-3-F (19), [2-(2,5-dimethoxy-4-nitrophenyl)ethyl][(3-fluoro-2-methoxyphenyl)methyl]amine], the maximal response (Emax) turned out to be 71.1 ± 1.9%.

For `COc1cc([N+](=O)[O-])c(OC)cc1CCNCc1cccc(C)c1O` [25N-NB-2-OH-3-Me (18), 2-({[2-(2,5-dimethoxy-4-nitrophenyl)ethyl]amino}methyl)-6-methylphenol], the maximal effect (Emax) came to 50.8 ± 1.6%.

Regarding `COc1cc([N+](=O)[O-])c(OC)cc1CCNCc1cccc(C)c1` [25N-NB-3-Me (22), [2-(2,5-dimethoxy-4-nitrophenyl)ethyl][(3-methylphenyl)methyl]amine], the maximal effect (Emax) stood at 41.7 ± 3.4%.

As to `COc1cc([N+](=O)[O-])c(OC)cc1CCNCc1cccc(O)c1` [25N-NB-3-OH (21), 3-({[2-(2,5-dimethoxy-4-nitrophenyl)ethyl]amino}methyl)phenol], the maximum response (Emax) came out at 49.8 ± 4.3%.

Regarding `COc1cc([N+](=O)[O-])c(OC)cc1CCNCc1ccccc1OC` [25N-NBOMe (4), [2-(2,5-dimethoxy-4-nitrophenyl)ethyl] [(2-methoxyphenyl)methyl]amine], the Emax was determined as 98%.

On to `COc1cc([N+](=O)[O-])c(OC)cc1CCNCc1ccccc1-c1ccccc1` [25N-NBPh (17), ({[1,1′-biphenyl]-2-yl}methyl)[2-(2,5-dimethoxy-4-nitrophenyl)ethyl]amine], for which the maximal response (Emax) worked out at 23.2 ± 1.5%.

The target in a further experiment is T1, 5-HT2A. As to the kind of experiment: Antagonism of 5-HT-induced Gq signaling (BRET).
Conditions: not given
It is filed as cell-based. The arrangement: expressed in transfected cells; host or cells: HEK293T, transient. For orientation: Bioluminescence resonance energy transfer reports proximity on the nanometre scale.
In the case of `COc1cc([N+](=O)[O-])c(OC)cc1CCNCc1cccc2ccccc12` [25N-N-1-Nap (16), [2-(2,5-dimethoxy-4-nitrophenyl)ethyl][(naphthalen-1-yl)methyl]amine], the “Antagonism of 5-HT-induced 5-HT2A-mediated Gq signaling” value was “antagonized”.

Turning to `COc1cc([N+](=O)[O-])c(OC)cc1CCNCc1ccccc1-c1ccccc1` [25N-NBPh (17), ({[1,1′-biphenyl]-2-yl}methyl)[2-(2,5-dimethoxy-4-nitrophenyl)ethyl]amine], the “Antagonism of 5-HT-induced 5-HT2A-mediated Gq signaling” value was “antagonized”.

Usually Ki stands for the dissociation constant of the complex between target and ligand, obtained from inhibition or displacement. A higher Ki goes with lower affinity. Usually Emax stands for the greatest response seen or fitted, relative to the assay's reference.
